The data set can be described thus: gradient 5% acetonitrile 3 min, to 50% in 2 min, to 85% in 15 min, held 3 min, 100 µL/min. The following applies: column: Zorbax Extend-C18 2.1 x 50 mm; eluents: water / acetonitrile, 0.1% formic acid. Put shortly:
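Retention times of pure standards were taken from adduct peaks that were selected by computer and manually inspected. Over 3 months, mixtures of ~100 molecules were run by HPLC–quadrupole time-of-flight mass spectrometry in positive and negative ionization mode. The Zorbax Extend-C18 column (2.1 × 50 mm, 1.8 μm) ran at 100 μL/min in water and acetonitrile, each containing 0.1% formic acid, with 40 μL dead volume and 900 μL dwell volume.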
For `CCSc1nnc(-c2nn(C)c3c2CN(S(=O)(=O)CC)CC3)n1CC`, the RP-LC retention time came to 750 s.
Then `Cc1ccc(-c2nc(C3CC(=O)N(c4ccc(F)cc4)C3)no2)cc1C` (stereo not given), with 1100 s; and `CS(=O)(=O)c1ccc(NCCCC(=O)O)c([N+](=O)[O-])c1`, with 624 s; and `O=C(Nc1ccc(Cn2cncn2)cc1)c1ccc(Br)o1`, with 708 s.
The compound `CCOC(=O)c1ccccc1NC(=O)Cn1cnc2c(sc3nc(-c4ccccc4)ccc32)c1=O` displayed an RP-LC retention time of 1200 s.
The figure for `Cc1ccc(S(=O)(=O)c2nnn3c2nc(N2CCN(c4ccccn4)CC2)c2ccccc23)cc1` is 711 s; for `CC1CCN(C(=O)CC2Sc3ncccc3N(C)C2=O)CC1` (stereo not given) it is 726 s; for `CCN1C(=O)c2cccnc2Sc2cc(NC(=O)c3ccc(C)cc3C)ccc21` it is 918 s.
Then `Cc1cc(C)c2c(N3CCOCC3)nc(C(=O)NCC3CCCO3)nc2n1` (stereo not given), with 585 s; and `OCc1ncc(-c2ccccc2)s1`, with 762 s.
`CCn1c(CCc2ccccc2NS(=O)(=O)c2ccc3c(c2)OCCO3)nc2ccccc21` came in with an RP-LC retention time of 717 s.
The compound `C=CCN1CC[C@@]2(C)c3cc(O)ccc3CC1[C@@H]2C` registered an RP-LC retention time of 644 s.
The compound `COc1ccccc1CN1CCc2nc(N3CCN(c4ncccn4)CC3)ncc2C1` had an RP-LC retention time of 716 s.
The figure for `CCn1cc(-c2nc(C(=O)Nc3ccccc3Cl)cs2)c2cccnc21` is 1330 s; for `CC(C)COc1cc(=O)n2c(c1C(=O)NC1CCCCC1)CCCCC2` it is 842 s; for `CC(Cc1ccco1)NC(=O)c1cc(S(=O)(=O)N2CCCCCC2)ccc1Cl` (stereo not given) it is 1010 s.
`O=C(Cc1ccsc1)N1CCCC1(CO)Cc1ccccc1` (stereo not given) displayed an RP-LC retention time of 805 s.
The figure for `Cn1ncc(N2CCCC(C(=O)O)C2)cc1=O` (stereo not given) is 580 s.
`CC(=O)N1CCN(c2ccc(NC(=O)c3ccccc3Br)cc2)CC1`: the RP-LC retention time stood at 646 s.
Then `CC(C)NC(=O)N(C1CCOCC1)C1CN(C(=O)c2ccnn2C)C1`, with 576 s; and `CNC(=O)c1sc2nc(-c3ccccc3)c(NCCOC)n2c1C`, with 637 s; and `COCC(=O)N1CCCc2ccc(NC(=O)CSc3ccc(F)cc3)cc21`, with 732 s.
The figure for `Cc1cc(C)cc(NC(=O)CSc2nccc(N3CCN(c4cc(C)ccc4C)CC3)n2)c1` is 989 s.
The figure for `Cc1ccc(N2N=NC3C(=O)N(c4ccccc4)C(=O)C32)cc1F` (stereo not given) is 1010 s.
`Cc1cc(N2CCN(C)CC2)n2nc(CN3CCN(c4ccc(Cl)cc4)CC3)nc2n1` displayed an RP-LC retention time of 572 s.
For the compound `Cc1ccc(-c2nc(Cn3c(C)nc4onc(C)c4c3=O)c(C)o2)cc1`, the RP-LC retention time came out at 1170 s.
The figure for `COc1ccc(NS(=O)(=O)c2cc(-c3[nH]ncc3C(=O)N(C)C)oc2C)cc1F` is 672 s; for `CCc1nc2c(c(=O)n1CC(=O)Nc1cccc(OC)c1)CN(Cc1ccccc1)CC2` it is 652 s.
Take `COC(=O)c1cnc2nc(C)ccc2c1Nc1cccc(F)c1`: the RP-LC retention time turned out to be 673 s.
Then `O=C(Cn1nc(C(=O)N2CCOCC2)c2ccccc21)Nc1ccc(F)cc1`, with 733 s.
In the case of `O=C(Nc1ncccn1)c1ccc(Cl)c(S(=O)(=O)N2CCOCC2)c1`, the RP-LC retention time was determined as 611 s.
In turn, `O=C(C1Cc2ccccc2CN1S(=O)(=O)c1cccs1)N1CCCCCC1` (stereo not given) gave an RP-LC retention time of 932 s.
As to `CS(=O)(=O)N1CCC(C(=O)Nc2ccc(F)cc2)Oc2ccc(Cl)cc21` (stereo not given), the RP-LC retention time stood at 903 s.
Then `O=C(c1cc(=O)[nH]c2ccccc12)N1CCCC1`, with 598 s.
The figure for `CCN1CCN(c2nc3c(c(Nc4ccccc4)n2)C(=O)CCC3)CC1` is 1040 s; for `CCOc1nc2c(c(C)nn2-c2cccc(C)c2)c(C)c1CCC(=O)N1CCN(c2ccccn2)CC1` it is 910 s.
Then `CCOC(=O)c1c(S(=O)(=O)N2CCC(C(=O)Nc3ccc(OC)cc3)CC2)c(C)n(CC)c1C`, with 857 s; and `CCOC(=O)N1CCN(C(=O)CCC2CCN(c3cc(NC4CC4)ncn3)CC2)CC1`, with 561 s.
The compound `O=C(Cn1cc(-c2nnco2)c2ccccc21)NCc1cccc(Br)c1` registered an RP-LC retention time of 774 s.
The figure for `c1cc(-c2nc3c(c(N4CCSCC4)n2)CCC3)ccn1` is 675 s.
The figure for `O=C1/C(=C/c2cccnc2)Oc2cc(OCc3ccc([N+](=O)[O-])cc3)ccc21` is 838 s; for `COc1cc(NC(=O)COc2nc(C)nc3ccccc23)cc(OC)c1OC` it is 649 s; for `CC(=O)N1CCC(C2CCN(C(=O)C3CC=CC3)C2)CC1` (stereo not given) it is 664 s.
Then `CC(C)(C)c1cc(C(=O)NCc2ccc(F)cc2)nc2ccnn12`, with 1140 s; and `Cc1cc(C)cc(C(=O)N2CCCC(C(=O)NC3CCCCCC3)C2)c1` (stereo not given), with 955 s.
As to `CC12CC(NC(=O)N1c1cccc(C(=O)NCc3cccnc3)c1)c1cc(Br)ccc1O2` (stereo not given), the RP-LC retention time came out at 642 s.
In turn, `Cc1cc(OCC(=O)N[C@H](C(=O)O)C(C)C)c2c3c(c(=O)oc2c1)CCC3` registered an RP-LC retention time of 788 s.
Then `COCCCNC(=O)Cc1cn(C)c2ncccc12`, with 576 s; and `Cc1cc(Cl)ccc1N1C(=O)CN(S(C)(=O)=O)CC1(C)C(=O)NC1CCCCC1` (stereo not given), with 900 s.
In turn, `COc1ccc(-c2nc3cc(C)ccn3c2Nc2ccc3c(c2)OCCO3)cc1` registered an RP-LC retention time of 714 s.
For the compound `O=C(Nc1ccc2c(c1)N(C(=O)c1ccccc1)CCC2)c1cccs1`, the RP-LC retention time came out at 876 s.
Then `O=C1[C@H]2CNC[C@H]2C(=O)N1CCc1ccccc1`, with 604 s; and `Cc1ccc(-c2cc3c(=O)n(Cc4noc(CN5CCCCC5C)n4)ccn3n2)cc1` (stereo not given), with 674 s; and `CCc1ccc(-c2nc3sc(C(=O)NC)c(C)n3c2NCCOC)cc1`, with 754 s.
The figure for `Cc1ccc(CNC(=O)Cn2c(C)cc(-c3nnc(-c4ccc(F)cc4)o3)c2C)cc1` is 982 s; for `CCOC(=O)Cn1c(C2CC(=O)N(c3cc(Cl)ccc3OC)C2)nc2ccccc21` (stereo not given) it is 778 s.
Then `Cc1noc(-c2ccc(-n3ncc(C(=O)NCCC(C)C)c3C)nc2)n1`, with 943 s; and `CC(=O)NCc1csc(C2CCCN(C(=O)COc3ccccc3)C2)n1` (stereo not given), with 670 s; and `O=C(CSc1nnc(-c2cccc(S(=O)(=O)N3CCOCC3)c2)o1)c1ccccc1`, with 847 s.
In turn, `COc1ccc(CNC(=O)CCc2nc3ccc(C)cc3c(=O)n2C)cc1` gave an RP-LC retention time of 748 s.
With `NC(C(=O)N[C@@H]1C(=O)N2C(C(=O)O)=C(Cl)CS[C@H]12)c1ccccc1` (stereo not given in full), the RP-LC retention time was determined as 563 s.
Regarding `Cc1ccc(-c2nc(N)n(C(=O)C(C)(C)C)n2)cc1`, the RP-LC retention time amounted to 1080 s.
In the case of `O=C(Cc1ccccc1Br)NCC(=O)N1CCCc2ccccc21`, the RP-LC retention time turned out to be 862 s.
In turn, `CCOC(=O)c1[nH]c(C)c(CCC(=O)N2CCC(C(=O)NCc3cccs3)CC2)c1C` had an RP-LC retention time of 755 s.
The figure for `COCCN1C(=O)[C@H]2CN(Cc3ccc(OC)cc3OC)C[C@H]2C1=O` is 594 s.
Compound `CS(=O)(=O)N1CCC(C(=O)N2CCCc3ccccc32)Oc2ccc(Cl)cc21` (stereo not given) showed an RP-LC retention time of 991 s.
Then `O=S(=O)(NCCc1c[nH]c2ncccc12)c1ccc(Br)s1`, with 673 s.
Then `O=C(Nc1ccc(N2CCN(C3CCCCC3)C2=O)nc1)c1ccc(F)cc1`, with 926 s; and `CCCCN1C(=O)C(C)(C(=O)Nc2ccc(C)cc2C)Oc2cccnc21` (stereo not given), with 1090 s; and `CNC(=O)c1ccc(-c2nc3cc(NS(=O)(=O)c4ccc(Br)cc4)ccc3n2C)cc1`, with 673 s.
`O=C(NCCC1=CCCCC1)C(=O)NCc1ccsc1` displayed an RP-LC retention time of 894 s.
Turning to `CSc1cccc(NC(=O)C2CCCN(c3cnc4nc(C)c(C)nc4c3)C2)c1` (stereo not given), the RP-LC retention time was 807 s.
Then `CCOc1ccc(NC(=O)c2cnc(N3CCN(CC)CC3)nc2N)cc1`, with 609 s; and `Cc1nnc(-c2ccc3ccn(CC(=O)NC4CCCCCC4)c3c2)o1`, with 813 s.
Consider `CC1CCCN(C(=O)C(=O)NCc2n[nH]c(=O)c3ccccc23)C1` (stereo not given), for which the RP-LC retention time amounted to 644 s.
Then `Cc1cc2c(cc1S(=O)(=O)N1CCCC1C(=O)N1CCN(c3ccccc3)CC1)OCC(=O)N2` (stereo not given), with 747 s; and `CCOc1ccc(S(=O)(=O)NCC2CCN(C(=O)c3cccn(C)c3=O)CC2)cc1C`, with 657 s.
Then `CCN1CCN(c2cc(C)c3cc(NC(=O)COc4ccc(F)cc4)ccc3n2)CC1`, with 594 s; and `CCOC(=O)C1=C(CN(C)Cc2ccccc2)NC(=O)NC1c1ccc(C)cc1` (stereo not given), with 670 s.
Then `N#Cc1ccc2[nH]cc(CCCCN3CCN(c4ccc5oc(C(N)=O)cc5c4)CC3)c2c1`, with 702 s.
